# Laboratory results as given in US12077503B2, “Substituted cyclic amides and their use as herbicides” (FMC CORPORATION, priority 2015, dated 2024).
# What was measured:
# Assay type in all cases: in vivo
# [1] = tested on: Kochia (Kochia scoparia); test: Test A preemergence; conditions: Bassia scoparia, pre-emergence, 240 h
# Outline: (§1)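 In a loam soil and sand blend, planted seeds got a preemergence directed soil spray, and young plants at the one- to two-leaf stage, 2–10 cm high, got a postemergence application; ~10 d greenhouse hold; injury rated visually, 0 = none, 100 = complete control.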
# [2] = tested on: ragweed (common ragweed, Ambrosia elatior); test: Test A preemergence; conditions: Ambrosia artemisiifolia, pre-emergence, 240 h
# Outline: as §1
# [3] = tested on: barnyardgrass (Echinochloa crus-galli); test: Test A preemergence; conditions: Echinochloa crus-galli, pre-emergence, 240 h
# Outline: as §1
# [4] = tested on: pigweed (Amaranthus retroflexus); test: Test A preemergence; conditions: Amaranthus retroflexus, pre-emergence, 240 h
# [5] = tested on: ryegrass, Italian (Italian ryegrass, Lolium multiflorum); test: Test A preemergence; conditions: Lolium multiflorum, pre-emergence, 240 h
# Outline: as §1
# [6] = tested on: Galium (catchweed bedstraw, Galium aparine); test: Test A postemergence; conditions: Galium, post-emergence, 240 h, postemergence, approx. 10 d
# Outline: as §1
# [7] = tested on: giant foxtail (Setaria faberii); test: Test A postemergence; conditions: Setaria faberi, post-emergence, 240 h, postemergence, approx. 10 d
# Outline: as §1
# [8] = tested on: corn (Zea mays); test: Test A postemergence; conditions: Zea mays, post-emergence, 240 h
# Outline: as §1
# [9] = tested on: blackgrass (Alopecurus myosuroides); test: Test A postemergence; conditions: Alopecurus myosuroides, post-emergence, 240 h, read-out: Plant response rating, Blackgrass
# Outline: as §1
# [10] = tested on: Kochia (Kochia scoparia); test: Test A postemergence; conditions: Bassia scoparia, post-emergence, 240 h, postemergence, approx. 10 d
# Outline: as §1
# [11] = tested on: ragweed (common ragweed, Ambrosia elatior); test: Test A postemergence; conditions: Ambrosia artemisiifolia, post-emergence, 240 h, postemergence, approx. 10 d
# Outline: as §1
# [12] = tested on: barnyardgrass (Echinochloa crus-galli); test: Test A postemergence; conditions: Echinochloa crus-galli, post-emergence, 240 h, read-out: Plant response rating, Barnyardgrass
# Outline: as §1
# [13] = tested on: pigweed (Amaranthus retroflexus); test: Test A postemergence; conditions: Amaranthus retroflexus, post-emergence, 240 h, postemergence, approx. 10 d
# Outline: as §1
# [14] = tested on: wheat (Triticum aestivum); test: Test A postemergence; conditions: Triticum aestivum, post-emergence, 240 h, postemergence, approx. 10 d
# Outline: as §1
# [15] = tested on: ryegrass, Italian (Italian ryegrass, Lolium multiflorum); test: Test A postemergence; conditions: Lolium multiflorum, post-emergence, 240 h, postemergence, approx. 10 d
# Outline: as §1
# [16] = 125 g ai/ha, Postemergence, visual injury after approximately 10 d, 0 to 100 scale where 0 is no effect and 100 is complete control
# [17] = 500 g ai/ha, postemergence, visual injury, 0 to 100 scale (0 no effect, 100 complete control), approx. 10 d
smiles,measurement,setting,value
Cc1ccc([C@H]2CNC(=O)[C@@H]2C(=O)Nc2cccc(F)c2F)cc1C [Compound 1034],pest or weed control at 125 g/ha,"[1]; 125 g ai/ha, Preemergence, visual injury rating after approximately 10 d, read-out: Kochia plant response rating (0 to 100 scale, 0 is no effect, 100 is complete control)",60%
same,pest or weed control at 500 g/ha,"[1]; 500 g ai/ha, preemergence, visual injury rating about 10 d after treatment, 0 to 100 scale (0 no effect, 100 complete control), read-out: Kochia plant response rating",70%
same,pest or weed control at 125 g/ha,"[2]; 125 g ai/ha, Preemergence, visual injury rating after approximately 10 d, read-out: Ragweed plant response rating (0 to 100 scale, 0 is no effect, 100 is complete control)",30%
same,pest or weed control at 500 g/ha,"[2]; 500 g ai/ha, preemergence, visual injury rating about 10 d after treatment, 0 to 100 scale (0 no effect, 100 complete control), read-out: Ragweed plant response rating",90%
same,pest or weed control at 125 g/ha,"[3]; 125 g ai/ha, Preemergence, visual injury rating after approximately 10 d, read-out: Barnyardgrass plant response rating (0 to 100 scale, 0 is no effect, 100 is complete control)",90%
same,pest or weed control at 500 g/ha,"[3]; 500 g ai/ha, preemergence, visual injury rating about 10 d after treatment, 0 to 100 scale (0 no effect, 100 complete control), read-out: Barnyardgrass plant response rating",90%
same,pest or weed control at 125 g/ha,"[4]; 125 g ai/ha, Preemergence, visual injury rating after approximately 10 d, read-out: Pigweed plant response rating (0 to 100 scale, 0 is no effect, 100 is complete control)",0%
same,pest or weed control at 500 g/ha,"[4]; 500 g ai/ha, preemergence, visual injury rating about 10 d after treatment, 0 to 100 scale (0 no effect, 100 complete control), read-out: Pigweed plant response rating",0%
same,pest or weed control at 125 g/ha,"[5]; 125 g ai/ha, Preemergence, visual injury rating after approximately 10 d, read-out: Ryegrass, Italian plant response rating (0 to 100 scale, 0 is no effect, 100 is complete control)",20%
same,pest or weed control at 500 g/ha,"[5]; 500 g ai/ha, preemergence, visual injury rating about 10 d after treatment, 0 to 100 scale (0 no effect, 100 complete control), read-out: Ryegrass, Italian plant response rating",60%
same,pest or weed control at 125 g/ha,"[6]; 125 g ai/ha, visual injury on 0 to 100 scale (0 no effect, 100 complete control), read-out: Galium plant response rating",40%
same,pest or weed control at 500 g/ha,"[6]; 500 g ai/ha, visual injury, 0 to 100 scale (0 no effect, 100 complete control), read-out: Plant response rating, Galium",60%
same,pest or weed control at 125 g/ha,"[7]; 125 g ai/ha, visual injury on 0 to 100 scale (0 no effect, 100 complete control), read-out: Foxtail, Giant plant response rating",20%
same,pest or weed control at 500 g/ha,"[7]; 500 g ai/ha, visual injury, 0 to 100 scale (0 no effect, 100 complete control), read-out: Plant response rating, Foxtail, Giant",80%
same,"Corn plant response rating (crop injury, 0 = no effect, 100 = complete kill) at 125 g/ha",[8]; [16],10%
same,"Corn plant response rating (crop injury, 0 = no effect, 100 = complete kill) at 500 g/ha",[8]; [17],50%
same,pest or weed control at 125 g/ha,[9]; [16],20%
same,pest or weed control at 500 g/ha,[9]; [17],30%
same,pest or weed control at 125 g/ha,"[10]; 125 g ai/ha, visual injury on 0 to 100 scale (0 no effect, 100 complete control), read-out: Kochia plant response rating",20%
same,pest or weed control at 500 g/ha,"[10]; 500 g ai/ha, visual injury, 0 to 100 scale (0 no effect, 100 complete control), read-out: Plant response rating, Kochia",30%
same,pest or weed control at 125 g/ha,"[11]; 125 g ai/ha, visual injury on 0 to 100 scale (0 no effect, 100 complete control), read-out: Ragweed plant response rating",10%
same,pest or weed control at 500 g/ha,"[11]; 500 g ai/ha, visual injury, 0 to 100 scale (0 no effect, 100 complete control), read-out: Plant response rating, Ragweed",40%
same,pest or weed control at 125 g/ha,[12]; [16],90%
same,pest or weed control at 500 g/ha,[12]; [17],90%
same,pest or weed control at 125 g/ha,"[13]; 125 g ai/ha, visual injury on 0 to 100 scale (0 no effect, 100 complete control), read-out: Pigweed plant response rating",0%
same,pest or weed control at 500 g/ha,"[13]; 500 g ai/ha, visual injury, 0 to 100 scale (0 no effect, 100 complete control), read-out: Plant response rating, Pigweed",0%
same,plant injury at 125 g/ha,"[14]; 125 g ai/ha, visual injury on 0 to 100 scale (0 no effect, 100 complete control), read-out: Wheat plant response rating",0%
same,plant injury at 500 g/ha,"[14]; 500 g ai/ha, visual injury, 0 to 100 scale (0 no effect, 100 complete control), read-out: Plant response rating, Wheat",50%
same,pest or weed control at 125 g/ha,"[15]; 125 g ai/ha, visual injury on 0 to 100 scale (0 no effect, 100 complete control), read-out: Ryegrass, Italian plant response rating",0%
same,pest or weed control at 500 g/ha,"[15]; 500 g ai/ha, visual injury, 0 to 100 scale (0 no effect, 100 complete control), read-out: Plant response rating, Ryegrass, Italian",60%
